# According to patent US20130345164A1, “TREATMENTS FOR CELLULAR PROLIFERATIVE DISORDERS AND IDENTIFICATION THEREOF” (UNIVERSITY OF MEDICINE AND DENTISTRY OF NEW JERSEY, priority 2010, published 2013):
# Key:
# p21 protein = test: Western Blot of p21 protein levels; type: cell-based, human
# [1] = system: p53 targets (p21, PUMA, and MDM2); test: Quantitative real-time PCR of p53 targets; type: cell-based, human; conditions: TOV112D cells, treated vs untreated, normalized with actin
# Method: (§1) Each treatment had three independent repeats (labeled as 1, 2, and 3); (e) Comparison of the p53 expression signatures of 319726 treated cells with that of p53 wild type, p53 null and p53R175H cell lines in response to gamma-irradiation.
# Assays were carried out to compare the mRNA levels of several p53 targets (p21, PUMA, and MDM2) in the TOV112D (p53R175H), OVCAR3 (p53R248W) and SKOV3 (p53 null) upon treatment with the compounds. The relative gene expression level was normalized with the actin and the ratio of the treated level vs. untreated level was shown for each cell line.
# [2] = system: murine fibroblast cell line (10)3 (p53 null); test: Growth inhibition assay on isogenic murine fibroblast lines (96-well MTS); type: cell-based; conditions: p53^null cells
# Method: (§2) None of these compounds have been previously reported for their selective activity in cells with a mutant p53. To provide further evidence for their specificity, growth inhibition assays were performed on isogenic cell lines. Previously developed murine fibroblast cell line (10)3 (p53 null) and 10(3) with transfection of cytomegalovirus-human mutant p53 constructs (273, 248 and 175) (Dittmer, D., et al., Nature Genetics, 1993. 4(1): p. 42-6) were used as cases, while the murine fibroblast cell line 3T3 was used as a p53 wild type control.
# (§3) The compounds were validated using several different cell line systems. The first system used was a mouse embryonic fibroblast (MEF) system in which a p53 null MEF line, 10(3), was used as a parental line from which several stable CMV-mutant p53 transfectants were derived. The p53 mutations investigated were the “hot spot” mutants 175, 248, and 273. NIH3T3 fibroblasts were used as a p53 wild type control.
# [3] = system: 10(3) cells with human mutant p53 construct 273; test: as above; type: cell-based; conditions: cells with mutation p53^273
# Method: as §2, §3
# [4] = system: 10(3) cells with human mutant p53 construct 175; test: as above; type: cell-based
# Method: as §2, §3
# [5] = system: 10(3) cells with human mutant p53 construct 248; test: as above; type: cell-based; conditions: cells with mutation p53^248
# Method: as §2, §3
# p53 R175H = target: T1, p53 R175H (Homo sapiens, UniProt P04637, R175H); test: Immunoprecipitation of TOV112D lysates with mutant specific antibody PAB240; type: cell-based; conditions: detection with DO-1
# T1 construct: one ovarian carcinoma cell line containing a p53^R175H (TOV112D); endogenous in cells; host or cells: TOV112D human ovarian carcinoma cells
# Source text: This conformational change was confirmed by immunoprecipitation of lysates from NSC319726-treated TOV112D cells using the mutant specific antibody PAB240. To that end, cell lysates were precipitated with PAB240 and detected with p53 (DO-1) antibody which recognizes all types of p53 protein conformations.
# [6] = system: cells carrying p53 mutations; test: NCI60 screen Score ranking, p53 mutant case group vs p53 wild-type control group; conditions: p53 273/248 mutant case group vs p53 wild-type control group; NCI60 data
# Method: The Score calculations are carried out by: • (1) calculating a Responsive Fraction, i.e., the fraction of the case cell lines in the Case Group that are responsive to the test treatment; • (2) calculating a Non-Responsive Fraction i.e., the fraction of the control cell lines in the Control Group that are not responsive to the test treatment; and • (3) generating a Score of the test treatment according to Formula I:
# Score=the Responsive Fraction×the Non-Responsive Fraction.
# Among the NCI60 cell lines, 16 have wild-type p53 and 44 carry a p53 alteration (Ikediobi, O. N., et al., Mol Cancer Ther, 2006. 5(11): p. 2606-12). Mutations at amino acids 273 and 248 are the most frequent, with 5 and 4 cell lines, respectively. Given the abundance of p53 mutations at positions 273 and 248 within the NCI60 cell lines, and their location in the p53-DNA contact, cells carrying these mutations were chosen to form a case group to identify compounds with increased activity in tumors with a mutant p53. On the other hand, cells with a wild-type p53 were chosen to form a control group. The resulting groups are the following:
# • Leukemia: CCRF-CEM; • Lung Cancer: NCI-H322M; • Central Nervous System Cancer: SF-295, SF-268, SNB-19, and U251; • Colorectal Cancer: HT29 and SW-620; • Ovarian Cancer: OVCAR-3.
# • Breast Cancer: MCF7; • Colorectal Cancer: HCT-116; • Lung Cancer: A549, NCI-H226, and NCI-H460; • Leukemia: SR; • Melanoma: LOXIMVI, MALME-3M, SK-MEL-5, UACC-257, and UACC-62; • Ovarian Cancer: OVCAR-5; • Renal Cancer: A498, ACHN, CAKI-1, and UO-31.
# Using the protocols described above, the NCI60 treatment-cell line RG was constructed, taking RS=log10IC50-average(log10IC50) as a relative response sensitivity measurement and computing the average(log10IC50) over all the 60 cell lines. The Case and Control groups listed above were chosen, and the score in Formula I was computed for the 47,624 compounds in the NCI60 screen.
# [7] = system: MEF cells with exogenous p53 mutations; test: Apoptosis by Annexin V staining in MEF cells; type: cell-based, mouse; conditions: for induction of apoptosis (Annexin V staining): MEF cells with exogenous p53 mutations
# Source text: (§4) Briefly, apoptosis was examined by Annexin V staining using standard methods.
# MEF-p53^R172H cells = test: Viability assay in 12-well cultures (Guava PCA) in MEF lines of the same strain; type: cell-based, mouse; conditions: MEF-p53^R172H vs MEF-p53 wild type and MEF-p53 null
# Method: The sensitivity was measured in 12-well cultures for viability assay using the Guava PCA instrument following the manufacture protocol.
# [8] = system: TOV112D-p53R175H, OVCAR3-p53 R248W and SKOV3-p53 null; test: Apoptosis by Annexin V staining in ovarian carcinoma cell lines; type: cell-based, human; conditions: three ovarian carcinoma cell lines
# Source text: as §4
# [9] = system: murine fibroblast cell line 3T3 (p53 wild type control); test: Growth inhibition assay on isogenic murine fibroblast lines (96-well MTS); type: cell-based; conditions: FIG. 5c
# Method: as §2, §3
# [10] = Toxicity assays in p53 wild type, p53 null and p53^R172H mice; type: in vivo; conditions: for survival by day 4: 10 mg/kg intraperitoneally daily; for survival by day seven: 5 mg/kg
# Method: Toxicity assays were performed in p53 wild type, p53 null, and p53^R172H mice to determine if in vivo p53 mutant synthetic lethality could be detected.
# First, three groups of mice: […], p53^+/R172H/R172H mice, were compared.
# Next, the dose was lowered to 5 mg/kg and three groups of mice (p53 wild type, p53 null, and p53^R172H/R172H) were compared.
# [11] = system: p53 wild type cell lines (H460, HCT116, MCF7 and WI38); test: Sensitivity of human tumor cell line system; type: cell-based; conditions: 0.1 μM to 10 μM
# [12] = system: H460-p53 wildtype, MDAMB468-p53^R273H, HCT116-p53 null and TOV112D-p53^R175H xenograft tumors; test: Mouse xenograft tumor growth; type: in vivo; conditions: 1 μg/g intravenously once daily vs control
# TOV112D cells = test: Growth inhibition after silencing of p53 by siRNA; type: cell-based, human; conditions: p53^R175H silenced by siRNA
# Source text: (§5) In contrast, the sensitivity of the p53 null cell line (SKOV3) was not reduced by the siRNA in a similar fashion.
# [13] = system: p53 null cell line (SKOV3); test: Growth inhibition after silencing of p53 by siRNA; type: cell-based, human
# Source text: as §5
# [14] = system: TOV112D (p53^R175H) ovarian carcinoma cell line; test: Sensitivity of human tumor cell line system; type: cell-based; conditions: 0.1 μM to 10 μM
# Source text: Five tumor cell lines with endogenous […] mutations were compared, including two cell lines containing R248W mutations and three cell lines with a R273H mutation.
# panel of p53 targets = test: Microarray analysis of p53 target genes in TOV112D cells; type: cell-based, human; conditions: TOV112D vs untreated controls
# Source text: as §1
# To examine the transcriptional activity of the NSC319725 and […]-treated cells on a larger scale, microarrays were used to analyze control- and compound-treated TOV112D cells.
# [15] = system: p53 response element (p53RE) in the p21 promoter, MEF cells with exogenous 248 or 273 mutations; test: Luciferase reporter assay, p53RE of the p21 promoter; type: cell-based, mouse; conditions: MEF cell lines expressing the 248 and 273 alleles
# Method: (§6) To that end, luciferase activity assays were performed. Briefly, a 20-bp p53 response element (p53RE) was subcloned in the pGL3 vector to generate a luciferase reporter plasmid, which contained 20 base pairs of the p53 response element in the p21 promoter. The sequences of the 5′ site and 3′ site at −2.27 kb and −1.38 kb (SEQ ID NOs: 1 and 3) and their reverse complements (SEQ ID NOs: 2 and 4) are listed below:
# (§7) The reporter plasmid was transfected to the TOV112D cells or MEF cells with exogenous 248 or 273 mutations. Cells thus-transfected were treated with NSC319726 and subjected to luciferase assays. […] This effect was not seen in MEF cell lines expressing the 248 and 273 alleles, FIG. 10b.
# [16] = system: p53 response element (p53RE) in the p21 promoter, TOV112D cells; test: as above; type: cell-based, human
# Method: as §6, §7
# p53^R175H mutant protein = target: T2, p53^R175H mutant protein (Homo sapiens, UniProt P04637, R175H); test: Immuno-fluorescent staining with conformation-specific antibodies (PAB1620, PAB240, PAB1801) in TOV112D; type: cell-based
# T2 construct: one ovarian carcinoma cell line containing a p53^R175H (TOV112D); endogenous in cells; host or cells: TOV112D human ovarian carcinoma cells
# Source text: Conformational change to wild type in TOV112D (p53R175H) was studied by immuno-fluorescent staining.
# [17] = system: p53^R172H/R172H mice tissues; test: Cleaved Caspase-3 immuno-staining and quantitative-PCR of p53 targets in mouse tissues; type: in vivo
# [18] = cells carrying the p53^173 mutation (so in the source)
smiles,measurement,setting,value
CC(=NNC(=S)N(C)C)c1ccccn1 [NSC319725],p21 induction (Western blot),p21 protein; SKOV3 (p53 null),did induce p21
same,p21 induction (Western blot),p21 protein; TOV112D (p53R175H),did not induce p21
same,"induction of mRNA of p53 targets p21, PUMA, MDM2",[1],no such effect
same,IC50,[2],~100 nM
same,IC50,[3],~100 nM
same,IC50,[4]; [18],~10 nM
same,IC50,[5],~100 nM
same,amount of p53 R175H immunoprecipitated by mutant specific antibody PAB240,p53 R175H,not
same,Score (Formula I),[6],0.50
same,induction of apoptosis (Annexin V staining),[7],did not induce apoptosis
C/C(=N\NC(=S)N1CCC1)c1ccccn1 [NSC319726],sensitivity compared to p53 wild type and p53 null controls,MEF-p53^R172H cells,much higher sensitivity
same,induction of apoptosis (Annexin V staining),[8],induction of apoptosis in all three
same,p21 induction (Western blot),p21 protein; TOV112D (p53R175H),induced p21
same,"induction of mRNA of p53 targets p21, PUMA, MDM2",[1],induced all three targets
same,IC50,[9],not even reached
same,IC50,[2],~100 nM
same,IC50,[3],~100 nM
same,IC50,"[4]; 175 mutant, FIG. 5c",8 nM
same,IC50,[4]; [18],~10 nM
same,IC50,[5],~100 nM
same,mice alive by day seven,"[10]; mouse, in vivo, ip, 10 mg/kg",approximately 40%
same,survival by day 4,[10]; p53^+/R172H mice,30%
same,survival by day seven,[10]; p53^R172H/R172H mice,30%
same,survival by day seven,[10]; p53 null mice,100%
same,survival by day seven,[10]; p53 wild type mice,100%
same,survival by day 4,[10]; p53 wild type mice,70%
same,sensitivity,[11],relative lack of sensitivity
same,xenograft tumor growth inhibition,[12],inhibited mouse xenograft tumor growth in an allele specific mutant p53 dependent manner
same,amount of p53 R175H immunoprecipitated by mutant specific antibody PAB240,p53 R175H,greatly reduced
same,change of sensitivity on p53 siRNA,TOV112D cells,reduced by four-fold
same,change of sensitivity on p53 siRNA,[13],not reduced
same,sensitivity,[14],marked sensitivity
same,transcriptional levels of panel of p53 targets (microarray),panel of p53 targets,induced a large proportion of these genes
same,increase in luciferase activity,[15],not seen
same,increase in luciferase activity,[16],2.5 fold
same,"conformational change of p53^R175H (recognised by PAB1620, no longer by PAB240)",p53^R175H mutant protein,induced a change in conformation
same,Score (Formula I),[6],0.52
same,apoptosis response of (10)3/175,[7]; (10)3/175 compared with other MEF lines,strongest apoptosis response
same,induction of apoptosis (Annexin V staining),[7],induced apoptosis
same,cleaved Caspase-3 immuno-stained cells in spleen and thymus,"[17]; p53^R172H/R172H mice vs wild type controls, 24 hours treatment",abundantly more cleaved Caspase-3 immuno-stained cells
same,mRNA levels of p53 targets in tissues,"[17]; p53^R172H/R172H mice vs wild type, lung, spleen, thymus, small intestine, 24 hours",Elevated mRNA levels
COc1ccc2c(c1)c1c(C)c3c[n+](C)ccc3c(C)c1n2C [NSC155694],Score (Formula I),[6],0.55
"COc1cc([C@@H]2c3cc4c(cc3[C@@H](O[C@@H]3O[C@@H]5CO[C@@H](C)O[C@H]5[C@H](O)[C@H]3O)[C@H]3COC(=O)[C@H]23)OCO4)cc(OC)c1O [Etoposide, reference compound]",p21 induction (Western blot),p21 protein; TOV112D (p53R175H),failed to induce p21
CC(=O)c1ccc2c(c1)c1c(C)c3c[n+](C)ccc3c(C)c1n2C.[I-] [NSC612941],Score (Formula I),[6],0.55
Cc1ccc(S(=O)(=O)O)cc1.Cn1c2ccccc2n2c3ccccc3c3nnc(N)c-3c12 [NSC694266],Score (Formula I),[6],0.50
CC1=CC(=C(c2ccc(N)cc2)c2ccc(N)cc2)C=CC1=N.Cl [NSC93739],Score (Formula I),[6],0.50
